The values that follow come from US20230149507A1, “TREATMENT OF ALT CANCERS” (INSTITUTO DE MEDICINA MOLECULAR JOÃO LOBO ANTUNES, priority 2019, published 2023).

For data set [1], the system named is U2OS and HeLa cells. Put plainly: Indirect IF with anti-BLM and anti-TRF2 antibodies, camptothecin treatment. The data set is classed as cell-based, human. From the text: HeLa cervical cancer, HT1080 fibrosarcoma, and HEK293 embryonic kidney cells were purchased from ATCC. U2OS osteosarcoma cells were a kind gift from M. Lopes (IMCR, Zurich, Switzerland). HuO9, Saos2 and HOS osteosarcoma cells were a kind gift from B. Fuchs (Balgrist University Hospital, Zurich, Switzerland). WI-38 VA13 in vitro SV40-transformed lung fibroblasts were a kind gift from A. Londoño-Vallejo (CNRS, Paris, France). SKNAS neuroblastoma cells were a kind gift from O. Shakhova (University Hospital Zurich, Switzerland). HeLa, HT1080, HEK293, U2OS, and WI-38 VA13 cells were cultured in high glucose DMEM, GlutaMAX (Thermo Fisher Scientific) supplemented with 10% tetracycline-free fetal bovine serum (Pan BioTech) and 100 U/ml penicillin-streptomycin (Thermo Fisher Scientific). HuO9, Saos2, HOS and SKNAS cells were cultured in high glucose DMEM/F12, GlutaMAX (Thermo Fisher Scientific), supplemented with 10% tetracycline-free fetal bovine serum (Pan BioTech), 100 U/ml penicillin-streptomycin (Thermo Fisher Scientific) and non-essential amino acids (Thermo Fisher Scientific). Mycoplasma contaminations were tested using the VenorGeM Mycoplasma PCR Detection Kit (Minerva Biolabs) according to the manufacturer's instructions. […]

The test system of data set [2] is U-2 OS ALT cells. Put plainly: Metaphase-TIFs after FANCM knockdown with siRNA. It is filed as cell-based, human. The note with it: compared to the scrambled control; siRNA 30 nM, 72 h. From the text: (§1) (a) Representative images of telomere (green) and γ-H2AX (red) colocalizations on metaphase spreads (meta-TIFs) in U-2 OS cells with or without FANCM depletion (left panel). Meta-TIFs are indicated by white arrows. Scale bars are 5 μm. Quantitation of TIFs (right panel). Scatterplot bars represent the mean±SEM. Out of 3 experiments, n≥81 metaphases scored per treatment, **p<0.005, Mann-Whitney test. (b) Native and denatured TRF analysis of U-2 OS cells with or without FANCM depletion. Colored arrows correspond to telomeric DNA species depicted in panel c. (c) Schematic of migration patterns for indicated telomeric species separated by two-dimensional gel electrophoresis (top panel). Two-dimensional TRF analysis of U-2 OS cells with or without FANCM depletion, hybridized under native and denatured conditions to detect the telomeric C-strand and G-strand (left and right panels). Colored arrows correspond to telomeric DNA species depicted in schematic. (d) Representative dot blot and quantitation of C-circle assays of U-2 OS cells with or without FANCM depletion. C-circle levels were normalized to the mean of scrambled control. Error bars represent the mean±SEM from n=3 experiments, *p<0.05, **p<0.005, Student's t-test. […] Out of 3 experiments, n≥150 cells scored per treatment, *p<0.05, **p<0.005, Mann-Whitney test. […]

The subject of data set [3] is U-2 OS cells. Put plainly: Terminal restriction fragment (TRF) analysis after FANCM siRNA. It is filed as cell-based, human. As to conditions: FANCM depletion, siRNA 30 nM.
Source text: as §1

Data set [4] concerns the target T1, BLM-TOP3A-RMI (BTR) complex (human, UniProt P54132 1-1417; Q13472 1-1001; Q9H9A7 1-625; Q96E14 2-147, limits assumed).
T1 construct: Endogenous complex in cell lysates (BLM, TOP3A, RMI1, RMI2); In the co-IPs it is read out by TOP3A and/or RMI1 immunoblot
Put plainly: competition co-IP: peptide added to HEK-293 Flag-FANCM lysate, Flag IP, TOP3A immunoblot. The protocol:
For co-IP experiments involved the ER-inducible system, cells were lysed in IP buffer (20 mM Tris-HCl pH 7.5, 100 mM NaCl, 10% (v/v) glycerol, 0.5 mM EDTA, 1 mM DTT) supplemented with 1× mammalian protease inhibitor cocktail (Sigma Aldrich) and 50 U/ml Benzonase (Novagen) for 2 h at 4° C., with or without MM2 peptide variants (Mimotopes). Following lysis, NaCl concentration was increased to 250 mM, then the lysate cleared at 16,000×g for 15 mins. Supernatant was then mixed with 1 μg of α-FANCM (Abcam) or α-ER (Santa Cruz Biotechnology) and 20 μl protein G sepharose (GE Healthcare), or using α-Flag M2 agarose (Sigma Aldrich). Following 3 h of mixing at 4° C., beads were washed 4× with IP buffer, and 1× with 50 mM NH₄(CO₃)₂, 0.5 mM EDTA, then eluted with 500 mM NH₄OH (pH 11.0), 0.5 mM EDTA. Samples were then lyophilized and resuspended in 1×LDS loading buffer (Life Technologies) prior to immunoblotting.
To explore the possibility of specifically targeting ALT cell viability through FANCM, two approaches to disrupt the FANCM-BTR complex were adopted. […] To investigate the effects of FANCM-BTR complex disruption in ALT cells, the MM2 peptide was rendered functionally dependent on tamoxifen by fusion to the C-terminus of the estrogen receptor (MM2-ER) (FIG. 11a). […]
For orientation: Immunoblotting shows a protein as a band on a membrane.

T1 sequence (P54132 whole entry, chain 1 of 4): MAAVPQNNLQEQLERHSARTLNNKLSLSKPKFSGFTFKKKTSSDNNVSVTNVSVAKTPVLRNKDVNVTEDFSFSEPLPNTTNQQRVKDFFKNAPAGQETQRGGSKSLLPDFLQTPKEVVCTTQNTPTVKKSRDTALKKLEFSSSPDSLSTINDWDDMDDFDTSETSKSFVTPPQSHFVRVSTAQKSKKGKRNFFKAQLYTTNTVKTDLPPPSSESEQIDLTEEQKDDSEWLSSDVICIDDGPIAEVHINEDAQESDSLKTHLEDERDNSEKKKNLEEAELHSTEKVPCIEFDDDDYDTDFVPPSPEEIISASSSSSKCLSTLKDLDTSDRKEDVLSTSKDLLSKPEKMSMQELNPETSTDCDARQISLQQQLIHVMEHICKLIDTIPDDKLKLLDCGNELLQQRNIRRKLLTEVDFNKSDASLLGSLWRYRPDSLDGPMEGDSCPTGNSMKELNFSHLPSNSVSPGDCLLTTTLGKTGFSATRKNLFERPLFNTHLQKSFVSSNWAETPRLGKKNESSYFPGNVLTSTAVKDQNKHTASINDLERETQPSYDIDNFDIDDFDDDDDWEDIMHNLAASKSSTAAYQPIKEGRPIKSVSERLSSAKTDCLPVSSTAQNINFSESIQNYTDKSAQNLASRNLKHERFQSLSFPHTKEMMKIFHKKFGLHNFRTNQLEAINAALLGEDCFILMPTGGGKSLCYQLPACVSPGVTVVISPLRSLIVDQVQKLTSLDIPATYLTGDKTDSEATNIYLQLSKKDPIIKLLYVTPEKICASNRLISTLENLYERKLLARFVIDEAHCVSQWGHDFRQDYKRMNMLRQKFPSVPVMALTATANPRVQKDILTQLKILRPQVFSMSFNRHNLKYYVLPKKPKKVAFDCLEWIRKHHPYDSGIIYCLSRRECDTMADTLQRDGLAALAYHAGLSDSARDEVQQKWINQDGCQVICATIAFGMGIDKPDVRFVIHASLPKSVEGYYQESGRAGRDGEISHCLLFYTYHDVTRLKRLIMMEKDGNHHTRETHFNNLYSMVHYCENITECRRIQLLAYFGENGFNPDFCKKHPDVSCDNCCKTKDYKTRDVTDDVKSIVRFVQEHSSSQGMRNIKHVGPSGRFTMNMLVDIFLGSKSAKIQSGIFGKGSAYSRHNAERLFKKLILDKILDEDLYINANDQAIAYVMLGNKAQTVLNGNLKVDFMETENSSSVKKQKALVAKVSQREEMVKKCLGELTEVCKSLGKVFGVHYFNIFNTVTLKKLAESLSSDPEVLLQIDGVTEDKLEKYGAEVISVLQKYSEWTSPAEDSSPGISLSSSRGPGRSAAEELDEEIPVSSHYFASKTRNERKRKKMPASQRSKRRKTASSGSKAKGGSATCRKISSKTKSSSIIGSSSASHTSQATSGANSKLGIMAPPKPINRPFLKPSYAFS
T1 sequence (Q13472 whole entry, chain 2 of 4): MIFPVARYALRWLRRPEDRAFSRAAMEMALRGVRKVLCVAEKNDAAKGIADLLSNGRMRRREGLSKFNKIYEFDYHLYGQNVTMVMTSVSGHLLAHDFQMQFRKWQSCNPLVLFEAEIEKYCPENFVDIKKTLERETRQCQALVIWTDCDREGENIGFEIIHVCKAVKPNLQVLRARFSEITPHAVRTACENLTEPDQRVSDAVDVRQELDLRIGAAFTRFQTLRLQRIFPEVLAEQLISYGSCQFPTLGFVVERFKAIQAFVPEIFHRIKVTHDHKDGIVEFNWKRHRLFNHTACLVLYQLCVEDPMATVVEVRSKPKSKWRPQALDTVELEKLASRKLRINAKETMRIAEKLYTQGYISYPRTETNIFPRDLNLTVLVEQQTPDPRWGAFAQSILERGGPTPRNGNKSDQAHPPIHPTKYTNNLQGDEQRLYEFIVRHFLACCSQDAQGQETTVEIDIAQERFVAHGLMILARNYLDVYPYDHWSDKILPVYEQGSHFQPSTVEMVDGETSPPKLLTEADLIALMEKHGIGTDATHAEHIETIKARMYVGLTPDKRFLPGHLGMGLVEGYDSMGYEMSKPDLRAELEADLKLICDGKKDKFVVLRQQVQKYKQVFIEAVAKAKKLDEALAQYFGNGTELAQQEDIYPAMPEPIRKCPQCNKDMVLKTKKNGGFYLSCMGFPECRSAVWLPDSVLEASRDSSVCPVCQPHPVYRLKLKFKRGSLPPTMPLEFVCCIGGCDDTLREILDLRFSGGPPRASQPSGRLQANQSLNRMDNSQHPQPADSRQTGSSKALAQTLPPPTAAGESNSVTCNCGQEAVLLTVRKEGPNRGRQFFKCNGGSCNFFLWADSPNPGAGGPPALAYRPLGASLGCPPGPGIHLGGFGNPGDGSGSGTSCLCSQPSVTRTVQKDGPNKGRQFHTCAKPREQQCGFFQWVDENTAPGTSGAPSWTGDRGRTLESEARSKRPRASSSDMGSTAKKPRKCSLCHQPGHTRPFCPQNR
T1 sequence (Q9H9A7 whole entry, chain 3 of 4): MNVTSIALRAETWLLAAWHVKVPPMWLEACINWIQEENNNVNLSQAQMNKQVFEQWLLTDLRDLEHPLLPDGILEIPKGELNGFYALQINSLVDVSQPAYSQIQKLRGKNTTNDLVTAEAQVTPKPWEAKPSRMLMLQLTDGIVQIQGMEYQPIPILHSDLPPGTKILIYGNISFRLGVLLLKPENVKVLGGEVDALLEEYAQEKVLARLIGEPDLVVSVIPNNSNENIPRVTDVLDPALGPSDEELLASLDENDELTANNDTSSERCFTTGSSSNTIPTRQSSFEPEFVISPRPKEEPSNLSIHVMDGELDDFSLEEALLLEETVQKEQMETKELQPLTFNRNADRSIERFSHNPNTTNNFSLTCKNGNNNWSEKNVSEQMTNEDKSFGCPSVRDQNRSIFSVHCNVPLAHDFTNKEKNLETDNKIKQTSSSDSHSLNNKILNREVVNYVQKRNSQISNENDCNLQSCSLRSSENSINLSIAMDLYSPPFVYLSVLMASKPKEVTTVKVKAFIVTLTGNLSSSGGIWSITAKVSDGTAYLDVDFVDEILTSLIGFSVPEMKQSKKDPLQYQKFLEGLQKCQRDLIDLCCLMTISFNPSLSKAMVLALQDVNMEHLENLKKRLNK
T1 sequence (Q96E14 2-147 limits assumed, chain 4 of 4): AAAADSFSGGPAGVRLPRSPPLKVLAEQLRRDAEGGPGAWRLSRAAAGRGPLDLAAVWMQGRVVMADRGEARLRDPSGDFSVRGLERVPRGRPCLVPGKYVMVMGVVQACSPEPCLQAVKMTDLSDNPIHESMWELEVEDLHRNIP

For the molecule `CC[C@@]1(O)C(=O)OCc2c1cc1n(c2=O)Cc2cc3ccccc3nc2-1` [CPT, Camptothecin], the “BLM TIF frequencies” value in data set [1] (all samples) is listed as “marginally affected TIF frequencies”. Also, the “nuclear (non-telomeric) BLM foci” value in data set [1] (siCt-transfected U2OS and HeLa cells, 1 μM camptothecin for 3 hours) is “robust formation of nuclear (non-telomeric) BLM foci”.

In the case of “siFANCM2: Silencer Select siRNA FANCM2 (s33621) (SEQ ID NO: 13) (GAACAUACAUCAGAUAGCA; listed as RNA, chemistry not given here)”, the “metaphase-TIFs (meta-TIFs)” value in data set [2] is given as “significant increase in metaphase-TIFs”. Besides, the “G-rich overhang and low molecular weight ss C-rich telomeric DNA (native TRF)” value in data set [3] is given as “most marked effects”.

On to EDIFDCSRDLFSVTADLGACSPDSDDEILEHTSD (also called MM2-FF>AA mutant peptide) [mutant human FANCM MM2 peptide containing the FF>AA mutant], for which the binding result in data set [4] is recorded as “no binding (tested: 1-50 µM)”.
